Data on four compounds can be found in patent US12264142B2, “Heterocyclic compounds” (FLORATEK PHARMA SA, priority 2019, dated 2025).

Each structure is given as a SMILES string. Entries after “also recorded” stand apart in the source; their conditions may differ.

For one series, the system named is C. elegans. The series is described as follows: Life span assay on Automated Lifespan Machine (SND302, SND303). The class given is in vivo. To be noted: for Maximum life span: average lifespan of the ten longest-lived worms; for Age in days at 25% mortality / Age in days at 50% mortality / Age in days at 75% mortality / Age in days at 90% mortality / Age in days at 100% mortality: SND302, SND303 25 μM, Uro A, Resveratrol 50 μM. Here is the method: An additional life span assay using an adapted standard protocol employed and published by the C. elegans Intervention Testing Program, or CITP was employed to assess the activity of SND302 and SND303. A positive and a negative control were included in the assay. In a preliminary experiment the optimal conditions for the life span analysis was determined and the stress level induced by the compounds as well as toxicity were measured.
For the life span assay over 300 worms per conditions were used and the study was conducted by InVivoBiosystems (USA) using an Automated Lifespan Machine (ALM) with proprietary modifications to improve temperature stability and image acquisition.
To prevent chemical modification or metabolism of the test article by the food bacteria, worms were fed on a lawn of UV-killed bacteria (UV-i bacteria). An overnight culture of E. coli strain WP-2 was pelleted, washed, filtered, and irradiated. A suspension of UV-i bacteria was spotted on NGM agar containing Streptomycin to inhibit growth of contaminating bacteria. The quantity and distribution of food bacteria was calibrated to ensure adequate access to food for the duration of assay while maintaining visibility of the worms.
Test article was delivered to worms by a method compatible with and previously validated on the Automated Lifespan Machine and used by the CIT [Lucanic, et. al. Impact of genetic background and experimental reproducibility on identifying chemical compounds with robust longevity effects. Nature Communications 8 (2017)]. A 200× stock solution was freshly prepared in DMSO immediately before application. 40 μl of DMSO stock (0.5% plate volume) was applied to the plate to coat the food bacteria and then chased immediately with 160 μl water to uniformly distribute a fine precipitate across the surface of the plate. This functioned to provide reservoirs of compound in food, agar, and agar surface.
The ALM used by InVivoBiosystems is based on the Caenorhabditis elegans lifespan machine published by Stroustrup, N. et al. The Caenorhabditis elegans Lifespan Machine. N at Methods 10, 665-670 (2013), with proprietary modifications to improve temperature stability and image acquisition. The scanner unit consists of a modified EPSON V850 and images are processed and analyzed using the ALM software 7. The machine time-of-death calls are trained and validated using the “storyboarding” feature of the ALM software.
The lifespan assay was designed and performed according to published and validated methods, Amrit, F. R. G., Ratnappan, R., Keith, S. A. & Ghazi, A. The C. elegans lifespan assay toolkit. Methods 68, 465-475 (2014); Lucanic, et. al. Manual Lifespan Assay Standard Operating Procedure. Caenorhabditis Intervention Testing Program https://figshare.com/articles/7_CITP_SOP_Manual_Lifespan_Assay/9738197/1. using a modified version of the Automated Lifespan Machine. Worms were age synchronized by bleaching and eggs were plated directly onto NGM agar seeded with UV-I bacteria (Day 1, hatch). On Day 3, when the worms had reached the late L4 stage, they were transferred to dishes containing 100 μM 5-Fluorodeoxyuridine (FUdR) to suppress progeny. On day 5, the worms were washed off the dishes and 30-50 worms were plated on each scanner dish. Plates were immobilized inverted on the bed of an Automated Lifespan Machine which scanned two images per hour of the plates continuously for the next 40 days.
Time of death calls exported from the ALM software were analyzed and plotted using the Lifelines software package developed by Davidson-Pilon, (2019). lifelines: survival analysis in Python. Journal of Open Source Software, 4(40), 1317.

Series [1] relates to human hepatocytes. Kind of series: Cell viability (ATP content) in primary human hepatocytes. The class given is cell-based. To be noted: 1 to 100 μM, 24 h exposure, pooled human hepatocytes. As for the experimental part: (§1) Cytotoxicity potency of test compound SND301 was assayed in human hepatocytes from pooled donor lots at three concentrations; 1, 10 and 100 μM. Cytotoxicity was assayed from medium samples after 24 h exposure period with test compounds by measuring membrane integrity (LDH leakage), coupled to fluorescent signal. In parallel, cell viability was assayed by the means of ATP content, indicating the metabolically competent cell activity. ATP content was measured based on luciferase catalysed reaction generating stable bioluminescent signal. Cytotoxic positive control compound was used: chlorpromazine at 5-250 μM.
(§2) Cryopreserved human hepatocytes from pooled donor lot (Bioreclamation IVT) were seeded on collagen I coated 96-well plates (Corning Biocoat) at 0.55×10^5 cells per well in 120 μl InVitroGRO™ CP medium (BioIVT), including additives Torpedo Antibiotic mix (BioIVT). […] Cytotoxicity and cell viability were evaluated based on LDH release in medium and ATP content in the cells after 24 hours exposure phase.
The remaining medium and cells were used for the assessment of metabolically competent cells (ATP) according to the manufacturer's (Promega) protocol. […] The samples were transferred to white opaque-walled 96-well plate (Corning #3610) after which measured with plate reader for luminescence.
(§3) Both LDH and ATP assays were measured 1-2 hours post treatment with assay components.

The subject of series [2] is human hepatocytes. Kind of series: Cytotoxicity (LDH leakage, membrane integrity) in primary human hepatocytes. The class given is cell-based. To be noted: 1 to 100 μM, 24 h exposure, pooled human hepatocytes. As for the experimental part: as §1, §2
After 24 h exposure half of the culture medium (50 μl) was transferred to black opaque-walled 96-well plate (Corning #3603) for LDH measurements and allowed to settle to room temperature. […] Thereafter the samples were analysed with plate reader for fluorescence (LDH; 560ex, 590em).
as §3
For orientation: Release of lactate dehydrogenase indicates damage to the cell membrane.

Series [3] concerns N2 wild type strain of worms. The series is described as follows: Toxicity and food avoidance test in worms (SND301). The class given is in vivo, C. elegans. The following applies: concentrations up to 50 μM, from embryo to first day of adulthood. Here is the method: In a first stage of this study, normal worms were treated with various concentrations of SND301 to test toxicity and food avoidance.
To test food avoidance worms were placed on agar plates containing a grid of alternating control and compound-containing food spots. The number of worms on each food spot was recorded every two hours.

Series [4] relates to N2 wild type strain of worms. Kind of series: C. elegans life span (survival) assay, manual scoring (SND301). The class given is in vivo. The following applies: for Death events / Maximum life span / Median lifespan: SND301 and Urolithin A 50 μM; for % Complete: deaths attributed to aging from total worm population. As for the experimental part:
The survival assay was conducted in the presence of 50 μM SND301 with measurements of live, dead, and censored worms at time points every 2-3 days from the start of adulthood.
Thioflavin T was used in the assay as a positive control [Gamir-Morralla A et al, 2019, “Effects of Thioflavin T and GSK-3 Inhibition on Lifespan and Motility in a Caenorhabditis elegans Model of Tauopathy”, J Alzheimers Dis Rep., 3(1): 47-57]. Vehicle 25% and 1% DMSO were used as controls and represent the vehicles in which compounds and bacteria or bacteria alone respectively were resuspended. The final DMSO concentration in the agar plates was 0.5% and 0.02% respectively.
5 mM DMSO stock solutions for each compound were prepared in high-grade DMSO. Stocks were protected from light and stored in glass vials at 21° C. in a temperature-controlled room (to avoid freeze/thaw of DMSO). A fresh stock was prepared at the start of each experiment and stored for <1 week.
The lifespan assay was designed and performed according to published and validated methods with modifications for chemical treatment [Amrit F R G et al, 2014, “The C. elegans lifespan assay toolkit”, METHODS 68, 465-475; Leukanic, et. Al, “Manual Lifespan Assay Standard Operating Procedure”, Caenorhabditis Intervention Testing Program, https://figshare.com/articles/7_CITP_SOP_Manual_Lifespan_Assay/9738197/1]. Plates were seeded with compound dissolved in 25% DMSO and bacteria. The DMSO diffused through the agar to reach a final concentration of 0.5%. Synchronized day 1 adult worms were transferred to seeded plates containing compound and allowed to lay eggs for 2 hours (Day 0, “hatchoff”). The young adults were then removed, and the eggs were incubated at 20° C. until they had reached the young adult stage (day 3). 200 young adult worms per treatment were transferred to 8 fresh seeded 35 mm dishes with compound and 50 μM 5-Fluorodeoxyuridine to suppress progeny. […] Worms that were missing, stuck to the dish, burrowed, injured, or exploded were scored as censored and removed from the plate. To maintain chemical exposure at the experimental concentrations, worms were transferred every other scoring day to new seeded plates with compound.

For series [5], the system named is C. elegans gene expression. The series is described as follows: Whole transcriptome analysis (RNA-Seq) of treated worms. The class given is in vivo. To be noted: for Significant differentially-expressed genes: 25 μM. As for the experimental part: To determine the mode of action for SND302 and SND303 the gene transcription in young and aged adults was analyzed by RNA-Seq (whole transcription analysis). For each condition, >300 worms were treated in parallel with the lifespan assay and maintained under identical conditions.
Differential gene expression was performed with EdgeR using […] likelihood ratio tests based on fitting linear models. The likelihood ratios were used to determine the p-values which were subsequently corrected for using the BH false discovery rate (fdr) method. Eventually, differential expressed genes were defined as genes with fdr-corrected p-value of 0.05 or lower, as well as a change in expression of at least 2-fold in a given between-group comparison. Compounds SND302 and SND303 were compared against Urolithin and Vehicle control. […] In general the transcriptomic data corroborates a differential effect for SND303 when compared to SND302 (FIGS. 1-4).
Worms for RNA-Seq were split from the same synchronized pool of worms for the lifespan with each of the three replicates being maintained and treated in parallel. More than 150 worms per replicate were harvested, cleaned by filtration, and frozen at −80° in Trizol. To extract RNA, samples were thawed, vigorously vortexed, and processed using the Direct-zol RNA Miniprep Kit (Zymo Research). All samples exceeded our threshold for RNA quantity and quality. RNA samples were submitted to Novogene Co. Ltd and subjected to more stringent QC, being tested on a Qubit for concentration and run on an agarose gel and on the Agilent […] assess RNA quality and integrity. […] The total RNA was then enriched for poly-mRNA using oligo(dT) paramagnetic beads. DNA libraries were then constructed from this input mRNA using the NEBNext Ultra™ II RNA Library Prep Kit.
These libraries were then further tested by the Qubit for concentration and the Agilent 2100 for library size distribution and quality. In order to properly pool the libraries and load them onto sequencing lanes to ensure the correct number of reads per sample, an even more precise quantification of the library was done via qPCR, and the samples were loaded onto the NovaSeq 6000 platform for a paired-end sequencing run of 150 bp for each end (PE150). The loading concentrations were designed to obtain at least 6.0 Gb (which is the number of billion bases of raw data, determined by the number of reads multiplied by the length of each read). A mean of 7.4 Gb (median 7.3 Gb) raw sequencing data was obtained across all samples, with a minimum of 6.3 Gb and a maximum of 8.5 Gb raw data. Sequencing run data quality control was performed both by Novogene and by an in-house analysis. The raw data set was analyzed for parameters such as the distribution of base quality along the length of the sequencing read, the distribution of error rate along the length of the sequencing read. Reads containing adapter sequences, with N>10% (where N means “base cannot be determined”) and with a low quality (Qscore<=5) for 50% or more of its total bases were removed.

The mark [6] stands for this setting: Table 1A, at a certain point during the study, N2.

In the case of `Oc1ccc(C=Cc2cc(O)cc(O)c2)cc1` [Resveratrol, reference compound], in the series on C. elegans (50 μM), the “Median lifespan” value stood at 28.2 days and the “Maximum life span” value is reported as 36.6 days. Also, in the series on C. elegans, the “Age in days at 25% mortality” value is recorded as 24.6 days, the “Age in days at 50% mortality” value is given as 28.2 days, the “Age in days at 75% mortality” value is recorded as 30.5 days and the “Age in days at 90% mortality” value was determined as 32.7 days. In addition, the “Age in days at 100% mortality” value in the series on C. elegans was found to be 37.8 days.

Take `CNC(=O)Oc1ccc2c(c1)oc(=O)c1cc(OC(=O)NC)ccc12` [SND301]: in the series with human hepatocytes [1], the ATP content is 72-103%. Besides, in the series on human hepatocytes [2], the “Cytotoxicity (LDH) leakage” value is given as 7-10%. For the same compound, in series [3], the Tolerability of exposure entry is reported as “well tolerated”. For the same compound, in series [4] (50 μM, in words), the “Effect on lifespan” value is “significantly increased life span; also recorded: significantly increased median lifespan”. In series [4] (setting [6]), the Death events was 59 and the “% Complete” value amounted to 31.6%. Besides, in series [4] (Table 1B, end of the study), the Death events stood at 179. In addition, in series [4] (end of the study), the “Maximum life span” value is listed as 31 days and the “Median lifespan” value stood at 24 days. In series [4] (until day 24, compared with all groups), the Surviving fraction entry is listed as “highest surviving fraction by a considerable margin”.

With `CCNC(=O)Oc1ccc2c(c1)oc(=O)c1cc(OC(=O)NCC)ccc12` [SND302], in the series with C. elegans (25 μM), the “Median lifespan” value is on record as 28.2 days and the “Maximum life span” value was 36.1 days. Moreover, in the series with C. elegans (25 μM, area under the survival curve), the “Mean lifespan” value is on record as 27.0 days. In addition, in the series with C. elegans, the “Age in days at 25% mortality” value turned out to be 24.2 days, the “Age in days at 50% mortality” value was 28.2 days, the “Age in days at 75% mortality” value was 31.0 days and the “Age in days at 90% mortality” value stood at 33.0 days. Moreover, in the series with C. elegans, the “Age in days at 100% mortality” value amounted to 37.9 days. Further, the Effect on lifespan result in the series with C. elegans (in words, compared to control) is on record as “did not show a significant difference from the control”. Also, in series [5] (Day 3, compared to the controls (Vehicle and Urolithin A)), the Significant differentially-expressed genes is given as 7-8 genes. In addition, the “Expression of gene C50F7.5” value in series [5] (Day 10) is on record as “significantly upregulated”. In series [5] (Day 10, compared to the controls (Vehicle and Urolithin A)), the Significant differentially-expressed genes is on record as 12-14 genes. In series [5] (early exposure period), the “Toxicity and stress response induction (transcriptome)” value was “some signs of toxicity and stress response induction”.

For `Cc1ccc2c(c1)sc(-c1ccc(N(C)C)cc1)[n+]2C.[Cl-]` [Thioflavin, Thioflavin T], in series [4] (setting [6]), the Death events came out at 38 and the “% Complete” value was 23.2%. In addition, in series [4] (Table 1B, end of the study), the Death events came out at 38. Moreover, in series [4] (end of the study), the “Maximum life span” value is recorded as 33 days and the “Median lifespan” value was 21 days.
